Measured values as given in PubChem BioAssay AID2060886 (Molecular Pharmacology Branch, DTP, NCI, 2025).
pIC50: −log10 of the molar value. “And” between values parts separate entries of the source, which are not always exact repeats. Equal entries are not always repeated. Blank lines part the entries; values can stand above or below the compound they belong to.

Tested on: 653999-131-R-J2-PDC complex spheroids, growth inhibition
Test: Anticancer human tumor 653999-131-R-J2-PDC patient-derived lung adenocarcinoma cell line growth inhibition [RAS]
Settings: for viability, T/C: stronger effect = lower value
In short: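 Multi-cell-type spheroids: tumor cells plus HUVEC endothelial cells and mesenchymal stem cells. RAS-pathway inhibitors were combined with targeted agents, each dosed in half-log steps down from clinical Cmax, or from 10 microM when Cmax was unknown.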

[1] = curve of first compound, second compound 0.000949 µM
[2] = curve of first compound, second compound 0.003 µM
[3] = curve of first compound, second compound 0.00949 µM
[4] = curve of first compound, second compound 0.03 µM
[5] = curve of first compound, second compound 0.0949 µM
[6] = curve of first compound, second compound 0.3 µM
[7] = second compound 0.000949 µM, first compound 0.0316 µM
[8] = second compound 0.000949 µM, first compound 0.1 µM
[9] = second compound 0.000949 µM, first compound 0.316 µM
[10] = second compound 0.000949 µM, first compound 1 µM
[11] = second compound 0.003 µM, first compound 0.0316 µM
[12] = second compound 0.003 µM, first compound 0.1 µM
[13] = second compound 0.003 µM, first compound 0.316 µM
[14] = second compound 0.003 µM, first compound 1 µM
[15] = second compound 0.00949 µM, first compound 0.0316 µM
[16] = second compound 0.00949 µM, first compound 0.1 µM
[17] = second compound 0.00949 µM, first compound 0.316 µM
[18] = second compound 0.00949 µM, first compound 1 µM
[19] = second compound 0.03 µM, first compound 0.0316 µM
[20] = second compound 0.03 µM, first compound 0.1 µM
[21] = second compound 0.03 µM, first compound 0.316 µM
[22] = second compound 0.03 µM, first compound 1 µM
[23] = second compound 0.0949 µM, first compound 0.0316 µM
[24] = second compound 0.0949 µM, first compound 0.1 µM
[25] = second compound 0.0949 µM, first compound 0.316 µM
[26] = second compound 0.0949 µM, first compound 1 µM
[27] = second compound 0.3 µM, first compound 0.0316 µM
[28] = second compound 0.3 µM, first compound 0.1 µM
[29] = second compound 0.3 µM, first compound 0.316 µM
[30] = second compound 0.3 µM, first compound 1 µM
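Note: spheroids exposed to the agents for seven days before the readout.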

pIC50 (compound alone, run of 09/09/2024): < 6.00
pIC50 (curve of compound): < 6.00
Structure (SMILES): C=CC(=O)N1CCN(c2nc(OCC3CCCN3C)nc3c(F)c(-c4nc(N)cc(C)c4C(F)(F)F)c(Cl)cc23)C(C)C1 (stereo not drawn)
viability, T/C (compound 0.0316 µM): 107% [middle of 12 runs]
viability, T/C (compound 0.316 µM): 107% [middle of 12 runs]

pIC50 [1]: < 5.00
pIC50 [2]: < 5.00
pIC50 [3]: < 5.00
pIC50 [4]: < 5.00
pIC50 [5]: < 5.00
pIC50 [6]: < 5.00
Structure (SMILES): NC1c2ccccc2OC12CCN(c1cnc3c(N4CCCc5ncccc54)n[nH]c3n1)CC2 (stereo not drawn) + CCn1c(-c2cccnc2C(C)OC)c2c3cc(ccc31)N1CCOC(CC(NC(=O)C(C(C)C)N(C)C(=O)C3(F)CCN(C(=O)C#CC(C)(C)N(C)C)CC3)C(=O)N3CCCC(N3)C(=O)OCC(C)(C)C2)C1
viability, T/C [7]: 74.6%
viability, T/C [8]: 75.4%
viability, T/C [9]: 82.6%
viability, T/C [10]: 71.6%
viability, T/C (second compound 0.000949 µM, first compound 3.16 µM): 71.9%
viability, T/C (second compound 0.000949 µM, first compound 10 µM): 85.5%
viability, T/C [11]: 83.4%
viability, T/C [12]: 83.3%
viability, T/C [13]: 75.5%
viability, T/C [14]: 67%
viability, T/C (second compound 0.003 µM, first compound 3.16 µM): 75.8%
viability, T/C (second compound 0.003 µM, first compound 10 µM): 77.5%
viability, T/C [15]: 70.3%
viability, T/C [16]: 82.2%
viability, T/C [17]: 67.6%
viability, T/C [18]: 76.2%
viability, T/C (second compound 0.00949 µM, first compound 3.16 µM): 72.3%
viability, T/C (second compound 0.00949 µM, first compound 10 µM): 65.3%
viability, T/C [19]: 68.9%
viability, T/C [20]: 66.2%
viability, T/C [21]: 64.1%
viability, T/C [22]: 72%
viability, T/C (second compound 0.03 µM, first compound 3.16 µM): 76.2%
viability, T/C (second compound 0.03 µM, first compound 10 µM): 67.7%
viability, T/C [23]: 78.6%
viability, T/C [24]: 71.4%
viability, T/C [25]: 73.5%
viability, T/C [26]: 71.9%
viability, T/C (second compound 0.0949 µM, first compound 3.16 µM): 72.1%
viability, T/C (second compound 0.0949 µM, first compound 10 µM): 73.5%
viability, T/C [27]: 83.8%
viability, T/C [28]: 72.2%
viability, T/C [29]: 87.3%
viability, T/C [30]: 79.6%
viability, T/C (second compound 0.3 µM, first compound 3.16 µM): 70%
viability, T/C (second compound 0.3 µM, first compound 10 µM): 71.7%

pIC50 (curve of compound): < 5.00
Structure (SMILES): NC1c2ccccc2OC12CCN(c1cnc3c(N4CCCc5ncccc54)n[nH]c3n1)CC2 (stereo not drawn)
viability, T/C (compound 0.0316 µM): 73.8% [middle of 4 runs]
viability, T/C (compound 0.316 µM): 75.5% [middle of 4 runs]
viability, T/C (compound 1 µM): 77.6% [middle of 4 runs]
viability, T/C (compound 3.16 µM): 83.9% [middle of 4 runs]
viability, T/C (compound 10 µM): 78.4% [middle of 4 runs]

pIC50 (curve of first compound, second compound 0.0316 µM): 5.68
pIC50 (curve of first compound, second compound 0.1 µM): 5.74
pIC50 (curve of first compound, second compound 0.316 µM): 5.80
pIC50 (curve of first compound, second compound 1 µM): 5.89
pIC50 (curve of first compound, second compound 3.16 µM): 7.50
pIC50 (curve of first compound, second compound 10 µM): > 7.50
Structure (SMILES): CCC(CC)c1cc(NC2CCC(N)C2)n2nccc2n1 (stereo not drawn) + C#Cc1c(F)ccc2cc(O)cc(-c3ncc4c(N5CC6CCC(C5)N6)nc(OCC56CCCN5CC(F)C6)nc4c3F)c12
viability, T/C (second compound 0.0316 µM, first compound 0.0316 µM): 91.1%
viability, T/C (second compound 0.0316 µM, first compound 0.1 µM): 110%
viability, T/C (second compound 0.0316 µM, first compound 0.316 µM): 84.8%
viability, T/C (second compound 0.0316 µM, first compound 1 µM): 105%
viability, T/C (second compound 0.0316 µM, first compound 3.16 µM): 15.3%
viability, T/C (second compound 0.0316 µM, first compound 10 µM): 28.7%
viability, T/C (second compound 0.1 µM, first compound 0.0316 µM): 85.2%
viability, T/C (second compound 0.1 µM, first compound 0.1 µM): 101%
viability, T/C (second compound 0.1 µM, first compound 0.316 µM): 93.1%
viability, T/C (second compound 0.1 µM, first compound 1 µM): 80.6%
viability, T/C (second compound 0.1 µM, first compound 3.16 µM): 14.2%
viability, T/C (second compound 0.1 µM, first compound 10 µM): 28.3%
viability, T/C (second compound 0.316 µM, first compound 0.0316 µM): 71.7%
viability, T/C (second compound 0.316 µM, first compound 0.1 µM): 75.5%
viability, T/C (second compound 0.316 µM, first compound 0.316 µM): 75.4%
viability, T/C (second compound 0.316 µM, first compound 1 µM): 72.3%
viability, T/C (second compound 0.316 µM, first compound 3.16 µM): 14.8%
viability, T/C (second compound 0.316 µM, first compound 10 µM): 17.3%
viability, T/C (second compound 1 µM, first compound 0.0316 µM): 56.2%
viability, T/C (second compound 1 µM, first compound 0.1 µM): 57%
viability, T/C (second compound 1 µM, first compound 0.316 µM): 68.7%
viability, T/C (second compound 1 µM, first compound 1 µM): 59.2%
viability, T/C (second compound 1 µM, first compound 3.16 µM): 10.7%
viability, T/C (second compound 1 µM, first compound 10 µM): 25.3%
viability, T/C (second compound 3.16 µM, first compound 0.0316 µM): 47.2%
viability, T/C (second compound 3.16 µM, first compound 0.1 µM): 45%
viability, T/C (second compound 3.16 µM, first compound 0.316 µM): 49.3%
viability, T/C (second compound 3.16 µM, first compound 1 µM): 39.4%
viability, T/C (second compound 3.16 µM, first compound 3.16 µM): 16%
viability, T/C (second compound 3.16 µM, first compound 10 µM): 27.7%
viability, T/C (second compound 10 µM, first compound 0.0316 µM): 36.2%
viability, T/C (second compound 10 µM, first compound 0.1 µM): 33.5%
viability, T/C (second compound 10 µM, first compound 0.316 µM): 20.9%
viability, T/C (second compound 10 µM, first compound 1 µM): 31.6%
viability, T/C (second compound 10 µM, first compound 3.16 µM): 9.65%
viability, T/C (second compound 10 µM, first compound 10 µM): 13.1%

pIC50 (curve of compound): 7.71 and 7.81
Structure (SMILES): CC(C)n1nc(-c2ccc3oc(N)nc3c2)c2c(N)ncnc21
viability, T/C (compound 0.000316 µM): 87.2% and 81.4% and 79.2%
viability, T/C (compound 0.001 µM): 89.2% and 93.6% and 71.3%
viability, T/C (compound 0.00316 µM): 87.7% and 76.8% and 77.8%
viability, T/C (compound 0.01 µM): 61.8% and 63.5% and 57.9%
viability, T/C (compound 0.0316 µM): 43.1% and 40.6% and 35.8%
viability, T/C (compound 0.1 µM): 34.1% and 25.4% and 27.2%

pIC50 [1]: 6.09
pIC50 [2]: 6.97
pIC50 [3]: > 8.50
pIC50 [4]: > 8.50
pIC50 [5]: > 8.50
pIC50 [6]: > 8.50
Structure (SMILES): C=CC(=O)Nc1cc(Nc2nccc(-c3cn(C)c4ccccc34)n2)c(OC)cc1N(C)CCN(C)C + CCn1c(-c2cc(N3CCN(C)CC3)cnc2C(C)OC)c2c3cc(ccc31)-c1csc(n1)CC(NC(=O)C1CC1C)C(=O)N1CCCC(N1)C(=O)OCC(C)(C)C2
viability, T/C (second compound 0.000949 µM, first compound 0.00316 µM): 88.7%
viability, T/C (second compound 0.000949 µM, first compound 0.01 µM): 75.9%
viability, T/C [7]: 56.2%
viability, T/C [8]: 76%
viability, T/C [9]: 56.7%
viability, T/C [10]: 44.5%
viability, T/C (second compound 0.003 µM, first compound 0.00316 µM): 80.6%
viability, T/C (second compound 0.003 µM, first compound 0.01 µM): 63.7%
viability, T/C [11]: 59%
viability, T/C [12]: 52.9%
viability, T/C [13]: 43.1%
viability, T/C [14]: 37.2%
viability, T/C (second compound 0.00949 µM, first compound 0.00316 µM): 47.3%
viability, T/C (second compound 0.00949 µM, first compound 0.01 µM): 39.5%
viability, T/C [15]: 36.7%
viability, T/C [16]: 38%
viability, T/C [17]: 31.6%
viability, T/C [18]: 23.2%
viability, T/C (second compound 0.03 µM, first compound 0.00316 µM): 36.4%
viability, T/C (second compound 0.03 µM, first compound 0.01 µM): 29.9%
viability, T/C [19]: 28%
viability, T/C [20]: 37.2%
viability, T/C [21]: 28.8%
viability, T/C [22]: 16.2%
viability, T/C (second compound 0.0949 µM, first compound 0.00316 µM): 25.3%
viability, T/C (second compound 0.0949 µM, first compound 0.01 µM): 25.1%
viability, T/C [23]: 20.9%
viability, T/C [24]: 16.8%
viability, T/C [25]: 18.6%
viability, T/C [26]: 12.7%
viability, T/C (second compound 0.3 µM, first compound 0.00316 µM): 18.2%
viability, T/C (second compound 0.3 µM, first compound 0.01 µM): 26.2%
viability, T/C [27]: 22.1%
viability, T/C [28]: 22.1%
viability, T/C [29]: 16.6%
viability, T/C [30]: 11.2%
